pIC50: −log10 of the molar value.

This is an account of results in patent US10550105B2 (Ribon Therapeutics Inc., priority 2018, dated 2020).

This experiment concerns the target PARP7 (Homo sapiens (Human), UniProt Q7Z3E1). Briefly: Enzymatic assay for inhibition of PARP7: TR-FRET displacement of biotinylated Probe A from the TIPARP active site. The experiment is classed as binding. The settings on record: Table A-1. Summed up:
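Displacement of biotinylated Probe A from TIPARP was measured as the 665/615 nm time-resolved FRET ratio (excitation 320 nm, 90 μs delay) after a further 30 min at 25 °C. Inhibition across compound concentrations was fitted by dose-response regression, with the Hill slope free or fixed at 1 (3-parameter fit).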
For orientation: TR-FRET usually uses a lanthanide donor and a delayed reading to cut background.

Sequence of PARP7 (Q7Z3E1 whole entry): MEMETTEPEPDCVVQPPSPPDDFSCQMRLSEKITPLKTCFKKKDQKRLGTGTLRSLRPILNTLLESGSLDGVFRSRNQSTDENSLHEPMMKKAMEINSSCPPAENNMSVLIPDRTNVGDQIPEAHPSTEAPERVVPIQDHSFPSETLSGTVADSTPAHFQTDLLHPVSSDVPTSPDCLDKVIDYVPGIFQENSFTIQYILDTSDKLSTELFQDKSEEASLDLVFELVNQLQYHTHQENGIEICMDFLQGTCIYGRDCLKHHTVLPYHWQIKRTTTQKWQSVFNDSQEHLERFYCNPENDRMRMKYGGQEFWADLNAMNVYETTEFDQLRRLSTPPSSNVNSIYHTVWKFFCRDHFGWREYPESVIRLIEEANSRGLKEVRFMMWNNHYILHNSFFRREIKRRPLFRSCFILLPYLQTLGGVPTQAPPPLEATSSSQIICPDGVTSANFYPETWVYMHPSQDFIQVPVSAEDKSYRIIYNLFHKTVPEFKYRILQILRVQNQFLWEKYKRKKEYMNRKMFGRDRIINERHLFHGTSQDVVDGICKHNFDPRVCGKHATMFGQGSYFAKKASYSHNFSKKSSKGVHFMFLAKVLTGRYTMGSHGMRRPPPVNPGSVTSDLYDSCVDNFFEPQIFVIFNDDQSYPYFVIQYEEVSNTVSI

By pIC50 is commonly meant −log10 of the IC50, conventionally taken in molar units. The low end stands for a high IC50, the high end for a low IC50. On to `CC[C@@H](COCCC(=O)N1CCN(c2ccc(Cl)cn2)CC1)Nc1cn[nH]c(=O)c1C(F)(F)F` [Example 586, 5-[[(2S)-1-[3-[4-(5-Chloropyridin-2-yl)piperazin-1-yl]-3-oxopropoxy]butan-2-yl]amino]-4-(trifluoromethyl)-2,3-dihydropyridazin-3-one], for which the pIC50 was more than 7.00.

For the compound `CC[C@@H](COCCC(=O)N1CCN(c2ccc(C(F)(F)F)cn2)CC1)Nc1cn[nH]c(=O)c1C(F)(F)F` [Example 587, 5-[[(2S)-1-(3-Oxo-3-[4-[5-(trifluoromethyl)pyridin-2-yl]piperazin-1-yl]propoxy)butan-2-yl]amino]-4-(trifluoromethyl)-2,3-dihydropyridazin-3-one], the pIC50 was more than 7.00.

`CC[C@@H](COCCC(=O)N1CCN(c2ncc(Cl)cn2)CC1)Nc1cn[nH]c(=O)c1C(F)(F)F` [Example 588, 5-[[(2S)-1-[3-[4-(5-Chloropyrimidin-2-yl)piperazin-1-yl]-3-oxopropoxy]butan-2-yl]amino]-4-(trifluoromethyl)-2,3-dihydropyridazin-3-one] had a pIC50 of more than 7.00.

In turn, `CC[C@@H](COCCC(=O)N1CCN(c2ccc(C#N)cn2)CC1)Oc1cn[nH]c(=O)c1C(F)(F)F` [Example 589, 6-(4-[3-[(2S)-2-[[6-Oxo-5-(trifluoromethyl)-1,6-dihydropyridazin-4-yl]oxy]butoxy]propanoyl]piperazin-1-yl)pyridine-3-carbonitrile] showed a pIC50 of more than 7.00.

Compound `N#Cc1cnc(N2CCN(C(=O)CCOCCOc3cn[nH]c(=O)c3C(F)(F)F)CC2)nc1` [Example 590, 2-(4-(3-(2-(6-Oxo-5-(trifluoromethyl)-1,6-dihydropyridazin-4-yloxy)ethoxy)propanoyl)piperazin-1-yl)pyrimidine-5-carbonitrile] had a pIC50 of more than 7.00.

Regarding `CC[C@@H](COc1cn[nH]c(=O)c1C(F)(F)F)OCCC(=O)N1CCN(c2ncc(Cl)cn2)CC1` [Example 591 Isomer B, 5-[(2S)-2-[3-[4-(5-Chloropyrimidin-2-yl)piperazin-1-yl]-3-oxopropoxy]butoxy]-4-(trifluoromethyl)-2,3-dihydropyridazin-3-one], the pIC50 was more than 7.00.

Take `CC[C@@H](COCCC(=O)N1CCN(c2ncc(C#N)cn2)CC1)Oc1cn[nH]c(=O)c1C(F)(F)F` [Example 592, 2-(4-[3-[(2S)-2-[[6-oxo-5-(trifluoromethyl)-1,6-dihydropyridazin-4-yl]oxy]butoxy]propanoyl]piperazin-1-yl)pyrimidine-5-carbonitrile]: the pIC50 is more than 7.00.

The compound `COC[C@@H](COCCC(=O)N1CCN(c2ccc(Cl)cn2)CC1)Nc1cn[nH]c(=O)c1C(F)(F)F` [Example 593, 5-[[(2S)-1-[3-[4-(5-Chloropyridin-2-yl)piperazin-1-yl]-3-oxopropoxy]-3-methoxypropan-2-yl]amino]-4-(trifluoromethyl)-2,3-dihydropyridazin-3-one] gave a pIC50 of more than 7.00.

In the case of `COC[C@@H](COCCC(=O)N1CCN(c2ccc(C(F)(F)F)cn2)CC1)Nc1cn[nH]c(=O)c1C(F)(F)F` [Example 594, 5-[[(2S)-1-Methoxy-3-(3-oxo-3-[4-[5-(trifluoromethyl)pyridin-2-yl]piperazin-1-yl]propoxy)propan-2-yl]amino]-4-(trifluoromethyl)-2,3-dihydropyridazin-3-one], the pIC50 is more than 7.00.

With `CC(C)[C@@H](COCCC(=O)N1CCN(c2ccc(C#N)cn2)CC1)Nc1cn[nH]c(=O)c1C(F)(F)F` [Example 595, 6-(4-[3-[(2S)-3-Methyl-2-[[6-oxo-5-(trifluoromethyl)-1,6-dihydropyridazin-4-yl]amino]butoxy]propanoyl]piperazin-1-yl)pyridine-3-carbonitrile], the pIC50 is more than 7.00.

Compound `CO[C@H](C)[C@@H](COCCC(=O)N1CCN(c2ccc(C#N)cn2)CC1)Nc1cn[nH]c(=O)c1C(F)(F)F` [Example 596, 6-(4-[3-[(2R,3R)-3-Methoxy-2-[[6-oxo-5-(trifluoromethyl)-1,6-dihydropyridazin-4-yl]amino]butoxy]propanoyl]piperazin-1-yl)pyridine-3-carbonitrile] gave a negative-log IC50 (pIC50) of more than 7.00.

Turning to `C[C@@H](COCCC(=O)N1CCN(c2ccc(C#N)cn2)CC1)Nc1cn[nH]c(=O)c1Cl` [Example 597, 6-(4-[3-[(2S)-2-[(5-Chloro-6-oxo-1,6-dihydropyridazin-4-yl)amino]propoxy]propanoyl]piperazin-1-yl)pyridine-3-carbonitrile], the pIC50 is more than 7.00.

As for `C[C@@H](COCCC(=O)N1CCN(c2ncc(Cl)cn2)CC1)Nc1cn[nH]c(=O)c1Cl` [Example 598, 4-Chloro-5-[[(2S)-1-[3-[4-(5-chloropyrimidin-2-yl)piperazin-1-yl]-3-oxopropoxy]propan-2-yl]amino]-2,3-dihydropyridazin-3-one], the pIC50 is more than 7.00.

For `C[C@@H](COCCC(=O)N1CCN(c2ncc(C(F)(F)F)cn2)CC1)Nc1cn[nH]c(=O)c1Cl` [Example 599, (S)-4-Chloro-5-(1-(3-oxo-3-(4-(5-(trifluoromethyl)pyrimidin-2-yl)piperazin-1-yl)propoxy)propan-2-ylamino)pyridazin-3(2H)-one], the pIC50 is more than 7.00.

In turn, `C[C@@H](COCCC(=O)N1CCN(c2ccc(C#N)cn2)CC1)Nc1cn[nH]c(=O)c1Br` [Example 600, 6-(4-[3-[(2S)-2-[(5-bromo-6-oxo-1,6-dihydropyridazin-4-yl)amino]propoxy]propanoyl]piperazin-1-yl)pyridine-3-carbonitrile] showed a pIC50 of more than 7.00.

In the case of `C[C@@H](COCCC(=O)N1CCN(c2ncc(C(F)(F)F)cn2)CC1)Nc1cn[nH]c(=O)c1Br` [Example 601, 4-Bromo-5-[[(2S)-1-(3-oxo-3-[4-[5-(trifluoromethyl)pyrimidin-2-yl]piperazin-1-yl]propoxy)propan-2-yl]amino]-2,3-dihydropyridazin-3-one], the pIC50 was more than 7.00.

The compound `C[C@@H](COCCC(=O)N1CCN(c2ncc(Cl)cn2)CC1)Nc1cn[nH]c(=O)c1Br` [Example 602] gave a pIC50 of more than 7.00.

Regarding `O=C(CCOC[C@H](CO)Nc1cn[nH]c(=O)c1C(F)(F)F)N1CCN(c2ncc(C(F)(F)F)cn2)CC1` [Example 603, 5-[[(2S)-1-Hydroxy-3-(3-oxo-3-[4-[5-(trifluoromethyl)pyrimidin-2-yl]piperazin-1-yl]propoxy)propan-2-yl]amino]-4-(trifluoromethyl)-2,3-dihydropyridazin-3-one], the pIC50 was more than 7.00.

For `O=C(CCOC[C@H](CO)Nc1cn[nH]c(=O)c1C(F)(F)F)N1CCN(c2ccc(C(F)(F)F)cn2)CC1` [Example 604, 5-[[(2S)-1-Hydroxy-3-(3-oxo-3-[4-[5-(trifluoromethyl)pyridin-2-yl]piperazin-1-yl]propoxy)propan-2-yl]amino]-4-(trifluoromethyl)-2,3-dihydropyridazin-3-one], the pIC50 was more than 7.00.

The compound `N#Cc1ccc(N2CCN(C(=O)CCOC[C@@H](Nc3cn[nH]c(=O)c3C(F)(F)F)C3CC3)CC2)nc1` [Example 605, (S)-6-[4-[3-[2-Cyclopropyl-2-[[6-oxo-5-(trifluoromethyl)-1,6-dihydropyridazin-4-yl]amino]ethoxy]propanoyl]piperazin-1-yl]nicotinonitrile] had a pIC50 of more than 7.00.

The compound `O=C(CCOC[C@@H](Nc1cn[nH]c(=O)c1C(F)(F)F)C1CC1)N1CCN(c2ncc(C(F)(F)F)cn2)CC1` [Example 606, (S)-5-[(1-Cyclopropyl-2-[3-oxo-3-[4-[5-(trifluoromethyl)pyrimidin-2-yl)piperazin-1-yl]propoxy]-ethyl]amino]-4-(trifluoromethyl)pyridazin-3(2H)-one] had a pIC50 of more than 7.00.

Compound `CO[C@H](C)[C@@H](COCCC(=O)N1CCN(c2ncc(C(F)(F)F)cn2)CC1)Nc1cn[nH]c(=O)c1C(F)(F)F` [Example 607, 5-[[(2R,3R)-3-Methoxy-1-(3-oxo-3-[4-[5-(trifluoromethyl)pyrimidin-2-yl]piperazin-1-yl]propoxy)butan-2-yl]amino]-4-(trifluoromethyl)-2,3-dihydropyridazin-3-one] gave a negative-log IC50 (pIC50) of more than 7.00.

Take `C[C@@H](COCCC(=O)N1CCN(c2ncc(C(F)(F)F)cn2)CC1)Oc1cn[nH]c(=O)c1Br` [Example 608, 4-Bromo-5-[[(2S)-1-(3-oxo-3-[4-[5-(trifluoromethyl)pyrimidin-2-yl]piperazin-1-yl]propoxy)propan-2-yl]oxy]-2,3-dihydropyridazin-3-one]: the pIC50 was more than 7.00.

Turning to `C[C@@H](COCCC(=O)N1CCN(c2ncc(Cl)cn2)CC1)Oc1cn[nH]c(=O)c1Br` [Example 609, 4-Bromo-5-[[(2S)-1-[3-[4-(5-chloropyrimidin-2-yl)piperazin-1-yl]-3-oxopropoxy]propan-2-yl]oxy]-2,3-dihydropyridazin-3-one], the pIC50 was more than 7.00.

For `C[C@@H](O)[C@@H](COCCC(=O)N1CCN(c2ncc(C(F)(F)F)cn2)CC1)Nc1cn[nH]c(=O)c1C(F)(F)F` [Example 610, 5-[[(2R,3R)-3-Hydroxy-1-(3-oxo-3-[4-[5-(trifluoromethyl)pyrimidin-2-yl]piperazin-1-yl]propoxy)butan-2-yl]amino]-4-(trifluoromethyl)-2,3-dihydropyridazin-3-one], the pIC50 is more than 7.00.

Consider `C[C@H](O)[C@@H](COCCC(=O)N1CCN(c2ncc(C(F)(F)F)cn2)CC1)Nc1cn[nH]c(=O)c1C(F)(F)F` [Example 611, 5-[[(2R,3S)-3-Hydroxy-1-(3-oxo-3-[4-[5-(trifluoromethyl)pyrimidin-2-yl]piperazin-1-yl]propoxy)butan-2-yl]amino]-4-(trifluoromethyl)-2,3-dihydropyridazin-3-one], for which the pIC50 is more than 7.00.

For the compound `C[C@@H](COCCC(=O)N1CCN(c2cnc(C(F)(F)F)cn2)CC1)Nc1cn[nH]c(=O)c1C(F)(F)F` [Example 613, (S)-5-((1-(3-Oxo-3-(4-(5-(trifluoromethyl)pyrazin-2-yl)piperazin-1-yl)propoxy)propan-2-yl)amino)-4-(trifluoromethyl)pyridazin-3(2H)-one], the pIC50 is more than 7.00.
